Laboratory results as given in patent US9561231B2 (AbbVie Inc., priority 2012, dated 2017).

Tests used:
[1] = molecular target: T1, second (BD2: amino acids E352-E168) bromodomain of BRD4 (Homo sapiens, UniProt O60885); experiment: TR-FRET bromodomain binding assay, BRD4 BD2; conditions: TR-FRET assay protocol (A-G, compound concentration range); Ki calculated from IC50, probe Kd and probe concentration; read-out: TR-FRET Binding Ki: BRD4 (BDII_E352-M457)
T1 construct: protocol
Protocol: (§1) A time-resolved fluorescence resonance energy transfer (TR-FRET) assay was used to determine the affinities of compounds of the Examples listed in Table 1 for each bromodomain of BRD4. His-tagged first (BD1: amino acids K57-E168) and second (BD2: amino acids E352-E168) bromodomains of BRD4 were expressed and purified. An Alexa647-labeled BET-inhibitor was used as the fluorescent probe in the assay.
(§2) Compound dilution series were prepared in DMSO via an approximately 3-fold serial dilution from one of the following:
(§3) or 5-fold serial dilution from one of the following:
(§4) Assay method A: 2.5 mM-800 nM
(§5) For Assay methods A, C, D, and F: Compounds were then diluted 6:100 in assay buffer (20 mM Sodium Phosphate, pH 6.0, 50 mM NaCl, 1 mM Ethylenediaminetetraacetic acid, 0.01% Triton X-100, 1 mM DL-Dithiothreitol) to yield 3× working solutions. […] of this solution were added to the assay plate to reach a final volume of 18 μL.
(§6) TR-FRET data were normalized to the means of 24 no-compound controls (“high”) and 8 controls containing 1 μM un-labeled probe (“low”). Percent inhibition was plotted as a function of compound concentration and the data were fit with the 4 parameter logistic equation to obtain IC50s. Inhibition constants (Ki) were calculated from the IC50s, probe Kd and probe concentration. Typical Z′ values were between 0.65 and 0.75.

[2] = molecular target: T2, first (BD1: amino acids K57-E168) bromodomain of BRD4 (Homo sapiens, UniProt O60885); experiment: TR-FRET bromodomain binding assay, BRD4 BD1; conditions: TR-FRET assay protocol (A-G, compound concentration range); Ki calculated from IC50, probe Kd and probe concentration; read-out: TR-FRET Binding Ki: BRD4 (BDI_K57-E168)
T2 construct: His-tagged first (BD1: amino acids K57-E168)
Protocol: as §1, §2, §3, §4, §5, §6

| Ki [1] | Ki [2] | SMILES |
| --- | --- | --- |
| 1080 nM | 2390 nM | COc1ccc(Oc2ccccc2-c2nn(C)c(=O)cc2OC)cc1 [Example 35, 5-methoxy-6-[2-(4-methoxyphenoxy)phenyl]-2-methylpyridazin-3(2H)-one] |
| 16000 nM | > 13000 nM | COc1ccc(-c2cc(=O)n(C)nc2-c2ccccc2Oc2ccccc2)c(OC)n1 [Example 125, 5-(2,6-dimethoxypyridin-3-yl)-2-methyl-6-(2-phenoxyphenyl)pyridazin-3(2H)-one] |
| 2150 nM | 353 nM | Cc1cc(-c2ccc(-c3ccc(=O)n(C)c3)c(OCC3CC3)c2)[nH]n1 [Example 312, 5-[2-(cyclopropylmethoxy)-4-(3-methyl-1H-pyrazol-5-yl)phenyl]-1-methylpyridin-2(1H)-one] |
| 570 nM | 629 nM | CCS(=O)(=O)Nc1cc(-c2ccc(=O)n(C)c2)c(OCC2CC2)cc1C [Example 366, N-[4-(cyclopropylmethoxy)-2-methyl-5-(1-methyl-6-oxo-1,6-dihydropyridin-3-yl)phenyl]ethanesulfonamide] |
| 6900 nM | 5520 nM | CN(C)C(=O)c1cc(-c2cc(=O)n(C)nc2-c2ccccc2Oc2ccccc2)ccc1F [Example 155, 2-fluoro-N,N-dimethyl-5-[1-methyl-6-oxo-3-(2-phenoxyphenyl)-1,6-dihydropyridazin-4-yl]benzamide] |
| 65.9 nM | 318 nM | CCOc1cc(=O)n(C)cc1-c1cc(NS(=O)(=O)c2ccc(OC(F)(F)F)cc2)ccc1Oc1ccc(F)cc1F [Example 308, N-[4-(2,4-difluorophenoxy)-3-(4-ethoxy-1-methyl-6-oxo-1,6-dihydropyridin-3-yl)phenyl]-4-(trifluoromethoxy)benzenesulfonamide] |
| 1520 nM | 3510 nM | COc1ccc(-c2cc(=O)n(C)nc2-c2ccccc2Oc2ccccc2)cc1F [Example 203, 5-(3-fluoro-4-methoxyphenyl)-2-methyl-6-(2-phenoxyphenyl)pyridazin-3(2H)-one] |
| 182 nM | 377 nM | CCS(=O)(=O)c1ccc(Oc2ccc(F)cc2F)c(-c2cn(C)c(=O)cc2Oc2ccc(F)cc2F)c1 [Example 317, 4-(2,4-difluorophenoxy)-5-[2-(2,4-difluorophenoxy)-5-(ethylsulfonyl)phenyl]-1-methylpyridin-2(1H)-one] |
| 551 nM | 190 nM | CCS(=O)(=O)Nc1ccc(Oc2ccc(F)cc2F)c(-c2cn(C)c(=O)cc2OCCN(C)C)c1 [Example 288, N-(4-(2,4-difluorophenoxy)-3-(4-(2-(dimethylamino)ethoxy)-1-methyl-6-oxo-1,6-dihydropyridin-3-yl)phenyl)ethanesulfonamide] |
| 11800 nM | – | CN(C)C(=O)c1cncc(-c2cc(=O)n(C)nc2-c2ccccc2Oc2ccccc2)c1 [Example 215, N,N-dimethyl-5-[1-methyl-6-oxo-3-(2-phenoxyphenyl)-1,6-dihydropyridazin-4-yl]pyridine-3-carboxamide] |

Further lines, the molecule ahead of its results:

| SMILES | Ki [1] | Ki [2] |
| --- | --- | --- |
| Cn1nc(-c2ccccc2Oc2ccccc2)c(-c2cccnc2)cc1=O [Example 195, 2-methyl-6-(2-phenoxyphenyl)-5-(pyridin-3-yl)pyridazin-3(2H)-one] | 317 nM | 664 nM |
| COC(=O)c1ccccc1-c1cc(=O)n(C)nc1-c1ccccc1Oc1ccccc1 [Example 126, methyl 2-[1-methyl-6-oxo-3-(2-phenoxyphenyl)-1,6-dihydropyridazin-4-yl]benzoate] | > 22200 nM | 9340 nM |
| Cc1nnc(-c2ccc(-c3cc(=O)n(C)nc3-c3ccccc3Oc3ccccc3)cc2)o1 [Example 91, 2-methyl-5-[4-(5-methyl-1,3,4-oxadiazol-2-yl)phenyl]-6-(2-phenoxyphenyl)pyridazin-3(2H)-one] | 238 nM | > 238 nM |
| CC(=O)N1CCC(c2cc(=O)n(C)nc2-c2ccccc2Oc2ccccc2)CC1 [Example 89, 5-(1-acetylpiperidin-4-yl)-2-methyl-6-(2-phenoxyphenyl)pyridazin-3(2H)-one] | 3890 nM | 8100 nM |
| CC(=O)OCc1ccc(-c2cc(=O)n(C)nc2-c2ccccc2Oc2ccccc2)cc1 [Example 80, 4-[1-methyl-6-oxo-3-(2-phenoxyphenyl)-1,6-dihydropyridazin-4-yl]benzyl acetate] | 439 nM | 708 nM |
| Cn1nc(-c2ccccc2Oc2ccccc2)c(-c2cccc(C(=O)N3CCSCC3)c2)cc1=O [Example 142, 2-methyl-6-(2-phenoxyphenyl)-5-[3-(thiomorpholin-4-ylcarbonyl)phenyl]pyridazin-3(2H)-one] | 1730 nM | 2400 nM |
| CCNC(=O)c1ccc(-c2cc(=O)n(C)nc2-c2ccccc2Oc2ccccc2)cc1 [Example 202, N-ethyl-4-[1-methyl-6-oxo-3-(2-phenoxyphenyl)-1,6-dihydropyridazin-4-yl]-benzamide] | 251 nM | 227 nM |
| Cc1cc(-c2cc(=O)n(C)nc2-c2ccccc2Oc2ccccc2)ccn1 [Example 205, 2-methyl-5-(2-methylpyridin-4-yl)-6-(2-phenoxyphenyl)pyridazin-3(2H)-one] | 2970 nM | 2830 nM |
| Cn1nc(-c2ccccc2Oc2ccccc2)c(C2CCN(C(=O)OC(C)(C)C)CC2)cc1=O [Example 86, tert-butyl 4-[1-methyl-6-oxo-3-(2-phenoxyphenyl)-1,6-dihydropyridazin-4-yl]piperidine-1-carboxylate] | 2740 nM | > 13000 nM |
| COc1cnccc1-c1cc(=O)n(C)nc1-c1ccccc1Oc1ccccc1 [Example 213, 5-(3-methoxypyridin-4-yl)-2-methyl-6-(2-phenoxyphenyl)pyridazin-3(2H)-one] | 15200 nM | > 13000 nM |
| CC(=O)c1cccc(-c2cc(=O)n(C)nc2-c2ccccc2Oc2ccccc2)c1 [Example 201, 5-(3-acetylphenyl)-2-methyl-6-(2-phenoxyphenyl)pyridazin-3(2H)-one] | 1710 nM | 2410 nM |
| COc1cccc(-c2cc(=O)n(C)nc2-c2ccccc2Oc2ccccc2)c1 [Example 197, 5-(3-methoxyphenyl)-2-methyl-6-(2-phenoxyphenyl)pyridazin-3(2H)-one] | 725 nM | 1060 nM |
| Cn1nc(-c2ccccc2Cc2ccccc2)ccc1=O [Example 222, 6-(2-benzylphenyl)-2-methylpyridazin-3(2H)-one] | 1360 nM | 6840 nM |
| CC1CCN(C(=O)c2cccc(-c3cc(=O)n(C)nc3-c3ccccc3Oc3ccccc3)c2)CC1 [Example 154, 2-methyl-5-{3-[(4-methylpiperidin-1-yl)carbonyl]phenyl}-6-(2-phenoxyphenyl)pyridazin-3(2H)-one] | 5940 nM | 11900 nM |
| COc1cc(=O)n(C)nc1-c1ccccc1OCC1CCCC1 [Example 46, 6-[2-(cyclopentylmethoxy)phenyl]-5-methoxy-2-methylpyridazin-3(2H)-one] | 18000 nM | 4390 nM |
| Cn1cccc1-c1cc(=O)n(C)nc1-c1ccccc1Oc1ccccc1 [Example 194, 2-methyl-5-(1-methyl-1H-pyrrol-2-yl)-6-(2-phenoxyphenyl)pyridazin-3(2H)-one] | 1430 nM | – |
| CN1CCC(c2cc(=O)n(C)nc2-c2ccccc2Oc2ccccc2)CC1 [Example 88, 2-methyl-5-(1-methylpiperidin-4-yl)-6-(2-phenoxyphenyl)pyridazin-3(2H)-one] | – | 6790 nM |
